# Test results from patent US11325955B2, “Stabilized anti-microbial peptides for the treatment of antibiotic-resistant bacterial infections” (priority 2017, dated 2022).
# Where two headings read alike, the source gives them in different places. Positions of bridges follow the written chain, without caps; N, C: chain ends. Non-standard residues stand in square brackets, D forms with d. Residues, ends and D or L forms follow the SMILES beside them. S5 = C=CCCC[C@](C)(N)C(=O)O; Nle = CCCC[C@H](N)C(=O)O
# How the values were obtained:
# B cereus = assay type: cell-based
# Description: (§1) The following microbroth dilution protocol was adapted to determine the minimum inhibitory concentration (MIC) of each peptide. First, Mueller-Hinton broth (MHB) was passed through an anion exchange column to remove polyanionic species and generate refined MHB. […] Briefly, bacterial cells were grown overnight in refined MHB at 37° C. and then diluted and allowed to grow again for several hours. Serial dilutions of peptide stocks in water (10 μl) were prepared using clear round-bottom polypropylene 96-well plates. Then 90 μl of bacteria in refined MHB was added to give a final inoculum of 5×10^5 CFU/ml. The plates were then covered with porous tape to reduce evaporation, and incubated for 20-24 hours at 37° C. The MIC is the minimum peptide concentration at which no visible growth was observed.
# E coli = assay type: cell-based
# Description: as §1
# P aeruginosa = assay type: cell-based
# Description: as §1
# S aureus = assay type: cell-based
# Description: as §1
# [1] = test system: primary human renal proximal tubule epithelial cells (pRPTECs); conditions: 24-hour incubation, FIG. 1
# Description: In one embodiment, pRPTECs are seeded at a density of 10,000 cells per well on 96 well plates and incubated for 48 hours at 37° C. Cells are then treated with different concentrations of the StAMP and incubated for another 24-to-48 hour period. Cell viability is then determined and/or lactate dehydrogenase (LDH) release is measured.
# Briefly, pRPTECs in complete growth cell medium were seeded in a 96 well plate at a density of 10,000 cells per well and incubated at 37° C. for 48 hours. Complete medium was then removed and replaced with a toxicity assay medium to which various concentrations of StAMP were added. Cells were then further incubated for 24 to 48 hours after which cell medium was collected and assayed for the presence of Lactate Dehydrogenase (LDH) using a Cytotoxicity Detection Kit (LDH) (Roche).
# [2] = test system: A. baumannii clinical isolates; assay type: cell-based
# Description: (§2) StAMPs were screened against a panel of MDR clinical samples obtained from the Antimicrobial Resistance Isolate Bank of the Centers for Disease Control and Prevention (Atlanta, Ga.).
# as §1
# (§3) The first three StAMPs of Table 2 in Example 3 were then tested against 39 clinical isolates of A. baumannii with various degrees of colistin resistance (Table 3, 4).
# [3] = test system: E. coli clinical isolates that harbor the MCR-1 plasmid; assay type: cell-based
# Description: as §2, §1, §3
compound,measurement,setting,value
"CCCC[C@H](NC(=O)[C@]1(C)CCCC=CCCC[C@](C)(NC(=O)[C@H](C)NC(=O)[C@H](CCCCN)NC(=O)CNC(=O)[C@H](Cc2ccccc2)NC(=O)[C@H](CCCCN)NC(=O)[C@H](CCCNC(=N)N)NC(=O)[C@H](CCCCN)NC(=O)[C@H](CO)NC(=O)[C@H](Cc2c[nH]cn2)NC(=O)[C@]2(C)CCCC=CCCC[C@](C)(NC(=O)CN)C(=O)NCC(=O)N[C@@H](CCCNC(=N)N)C(=O)N[C@@H](Cc3ccccc3)C(=O)N2)C(=O)N[C@@H](C(C)C)C(=O)NCC(=O)N[C@@H](CCC(=O)O)C(=O)N1)C(=O)N[C@@H](CC(N)=O)C(=O)N[C@@H](CO)C(N)=O [Mag(i+4)1,15(A9K, K4R, K10R), GXGRFXHSKRKFGKAXVGEXBNS] (H-G[S5]GRF[S5]HSKRKFGKA[S5]VGE[S5][Nle]NS-NH2; staple 2-6, 16-20)",MIC B cereus,B cereus,12.5 µg/mL
same,MIC E coli,E coli,3.1 µg/mL
same,MIC P aeruginosa,P aeruginosa,6.2 µg/mL
same,MIC S aureus,S aureus,>50 µg/mL
"CC(C)[C@@H]1NC(=O)[C@@](C)(NC(=O)[C@H](C)NC(=O)[C@H](CCCCN)NC(=O)CNC(=O)[C@H](Cc2ccccc2)NC(=O)[C@H](CCCCN)NC(=O)[C@H](CCCCN)NC(=O)[C@H](CCCCN)NC(=O)[C@H](CO)NC(=O)[C@H](Cc2c[nH]cn2)NC(=O)[C@]2(C)CCCC=CCCC[C@](C)(NC(=O)CN)C(=O)NCC(=O)N[C@@H](CCCCN)C(=O)N[C@@H](Cc3ccccc3)C(=O)N2)CCCC=CCCC[C@@](C)(C(=O)N[C@@H](C)C(=O)N[C@@H](CC(N)=O)C(=O)N[C@@H](CO)C(N)=O)NC(=O)[C@H](CCC(=O)O)NC(=O)CNC1=O [Mag(i+4)1,15(A9K, B21A), GXGKFXHSKKKFGKAXVGEXANS] (H-G[S5]GKF[S5]HSKKKFGKA[S5]VGE[S5]ANS-NH2; staple 2-6, 16-20)",MIC B cereus,B cereus,50 µg/mL
same,MIC E coli,E coli,6.2 µg/mL
same,MIC P aeruginosa,P aeruginosa,8.8 µg/mL
same,MIC S aureus,S aureus,>50 µg/mL
same,"pRPTEC lysis (% LDH release) relative to Mag(i+4)1,15(A9K)",[1],significantly attenuated pRPTEC lysis
"CCCC[C@H](NC(=O)[C@]1(C)CCCC=CCCC[C@](C)(NC(=O)[C@H](C)NC(=O)[C@H](CCCCN)NC(=O)CNC(=O)[C@H](Cc2ccccc2)NC(=O)[C@H](Cc2c[nH]cn2)NC(=O)[C@H](Cc2c[nH]cn2)NC(=O)[C@H](CCCCN)NC(=O)[C@H](CO)NC(=O)[C@H](Cc2c[nH]cn2)NC(=O)[C@]2(C)CCCC=CCCC[C@](C)(NC(=O)CN)C(=O)NCC(=O)N[C@@H](Cc3c[nH]cn3)C(=O)N[C@@H](Cc3ccccc3)C(=O)N2)C(=O)N[C@@H](C(C)C)C(=O)NCC(=O)N[C@@H](CCC(=O)O)C(=O)N1)C(=O)N[C@@H](CC(N)=O)C(=O)N[C@@H](CO)C(N)=O [Mag(i+4)1,15(A9K, K4H, K10H, K11H), GXGHFXHSKHHFGKAXVGEXBNS] (H-G[S5]GHF[S5]HSKHHFGKA[S5]VGE[S5][Nle]NS-NH2; staple 2-6, 16-20)",MIC B cereus,B cereus,>50 µg/mL
same,MIC E coli,E coli,17.7 µg/mL
same,MIC P aeruginosa,P aeruginosa,50 µg/mL
same,MIC S aureus,S aureus,>50 µg/mL
Colistin [reference compound],Antimicrobial Activity MIC,[2]; A. baumannii CDC Bank# 275,1 µg/mL
same,Antimicrobial Activity MIC,[2]; A. baumannii CDC Bank# 276,2 µg/mL
same,Antimicrobial Activity MIC,[2]; A. baumannii CDC Bank# 277,1 µg/mL
same,Antimicrobial Activity MIC,[2]; A. baumannii CDC Bank# 278,1 µg/mL
same,Antimicrobial Activity MIC,[2]; A. baumannii CDC Bank# 279,1 µg/mL
same,Antimicrobial Activity MIC,[2]; A. baumannii CDC Bank# 280,1 µg/mL
same,Antimicrobial Activity MIC,[2]; A. baumannii CDC Bank# 281,1 µg/mL
same,Antimicrobial Activity MIC,[2]; A. baumannii CDC Bank# 282,0.5 µg/mL
same,Antimicrobial Activity MIC,[2]; A. baumannii CDC Bank# 283,1 µg/mL
same,Antimicrobial Activity MIC,[2]; A. baumannii CDC Bank# 284,1 µg/mL
same,Antimicrobial Activity MIC,[2]; A. baumannii CDC Bank# 285,1 µg/mL
same,Antimicrobial Activity MIC,[2]; A. baumannii CDC Bank# 286,0.5 µg/mL
same,Antimicrobial Activity MIC,[2]; A. baumannii CDC Bank# 287,1 µg/mL
same,Antimicrobial Activity MIC,[2]; A. baumannii CDC Bank# 288,>8 µg/mL
same,Antimicrobial Activity MIC,[2]; A. baumannii CDC Bank# 289,2 µg/mL
same,Antimicrobial Activity MIC,[2]; A. baumannii CDC Bank# 290,1 µg/mL
same,Antimicrobial Activity MIC,[2]; A. baumannii CDC Bank# 291,1 µg/mL
same,Antimicrobial Activity MIC,[2]; A. baumannii CDC Bank# 292,1 µg/mL
same,Antimicrobial Activity MIC,[2]; A. baumannii CDC Bank# 293,0.5 µg/mL
same,Antimicrobial Activity MIC,[2]; A. baumannii CDC Bank# 294,1 µg/mL
same,Antimicrobial Activity MIC,[2]; A. baumannii CDC Bank# 295,1 µg/mL
same,Antimicrobial Activity MIC,[2]; A. baumannii CDC Bank# 296,0.5 µg/mL
same,Antimicrobial Activity MIC,[2]; A. baumannii CDC Bank# 297,1 µg/mL
same,Antimicrobial Activity MIC,[2]; A. baumannii CDC Bank# 298,0.5 µg/mL
same,Antimicrobial Activity MIC,[2]; A. baumannii CDC Bank# 299,2 µg/mL
same,Antimicrobial Activity MIC,[2]; A. baumannii CDC Bank# 300,1 µg/mL
same,Antimicrobial Activity MIC,[2]; A. baumannii CDC Bank# 301,0.5 µg/mL
same,Antimicrobial Activity MIC,[2]; A. baumannii CDC Bank# 302,2 µg/mL
same,Antimicrobial Activity MIC,[2]; A. baumannii CDC Bank# 303,>8 µg/mL
same,Antimicrobial Activity MIC,[2]; A. baumannii CDC Bank# 304,4 µg/mL
same,Antimicrobial Activity MIC,[2]; A. baumannii CDC Bank# 305,1 µg/mL
same,Antimicrobial Activity MIC,[2]; A. baumannii CDC Bank# 306,1 µg/mL
same,Antimicrobial Activity MIC,[2]; A. baumannii CDC Bank# 307,>8 µg/mL
same,Antimicrobial Activity MIC,[2]; A. baumannii CDC Bank# 308,8 µg/mL
same,Antimicrobial Activity MIC,[2]; A. baumannii CDC Bank# 309,8 µg/mL
same,Antimicrobial Activity MIC,[2]; A. baumannii CDC Bank# 310,8 µg/mL
same,Antimicrobial Activity MIC,[2]; A. baumannii CDC Bank# 311,1 µg/mL
same,Antimicrobial Activity MIC,[2]; A. baumannii CDC Bank# 312,0.5 µg/mL
same,Antimicrobial Activity MIC,[2]; A. baumannii CDC Bank# 313,1 µg/mL
same,Antimicrobial Activity MIC,"[3]; E. coli CDC Bank# 346, contains MCR-1 plasmid",2.5 µg/mL
same,Antimicrobial Activity MIC,"[3]; E. coli CDC Bank# 349, contains MCR-1 plasmid",1.2 µg/mL
"CCCC[C@H](NC(=O)[C@]1(C)CCCC=CCCC[C@](C)(NC(=O)[C@H](C)NC(=O)[C@H](CCCCN)NC(=O)CNC(=O)[C@H](Cc2ccccc2)NC(=O)[C@H](CCCCN)NC(=O)[C@H](Cc2c[nH]cn2)NC(=O)[C@H](CCCCN)NC(=O)[C@H](CO)NC(=O)[C@H](Cc2c[nH]cn2)NC(=O)[C@]2(C)CCCC=CCCC[C@](C)(NC(=O)CN)C(=O)NCC(=O)N[C@@H](Cc3c[nH]cn3)C(=O)N[C@@H](Cc3ccccc3)C(=O)N2)C(=O)N[C@@H](C(C)C)C(=O)NCC(=O)N[C@@H](CCC(=O)O)C(=O)N1)C(=O)N[C@@H](CC(N)=O)C(=O)N[C@@H](CO)C(N)=O [Mag(i+4)1,15(A9K, K4H, K10H), GXGHFXHSKHKFGKAXVGEXBNS] (H-G[S5]GHF[S5]HSKHKFGKA[S5]VGE[S5][Nle]NS-NH2; staple 2-6, 16-20)",MIC B cereus,B cereus,50 µg/mL
same,MIC E coli,E coli,3.1 µg/mL
same,MIC P aeruginosa,P aeruginosa,50 µg/mL
same,MIC S aureus,S aureus,>50 µg/mL
"CCCC[C@H](NC(=O)[C@]1(C)CCCC=CCCC[C@](C)(NC(=O)[C@H](C)NC(=O)[C@H](CCCCN)NC(=O)CNC(=O)[C@H](Cc2ccccc2)NC(=O)[C@H](CCCCN)NC(=O)[C@H](CCCCN)NC(=O)[C@H](CCCCN)NC(=O)[C@H](CO)NC(=O)[C@H](Cc2c[nH]cn2)NC(=O)[C@]2(C)CCCC=CCCC[C@](C)(NC(=O)CN)C(=O)NCC(=O)N[C@@H](CCCNC(=N)N)C(=O)N[C@@H](Cc3ccccc3)C(=O)N2)C(=O)N[C@@H](C(C)C)C(=O)NCC(=O)N[C@@H](CCC(=O)O)C(=O)N1)C(=O)N[C@@H](CC(N)=O)C(=O)N[C@@H](CO)C(N)=O [Mag(i+4)1,15(A9K, K4R), GXGRFXHSKKKFGKAXVGEXBNS] (H-G[S5]GRF[S5]HSKKKFGKA[S5]VGE[S5][Nle]NS-NH2; staple 2-6, 16-20; N-terminus and C-terminus assumed)",MIC B cereus,B cereus,12.5 µg/mL
same,MIC E coli,E coli,3.1 µg/mL
same,MIC P aeruginosa,P aeruginosa,6.2 µg/mL
same,MIC S aureus,S aureus,>50 µg/mL
"CCCC[C@H](NC(=O)[C@]1(C)CCCC=CCCC[C@](C)(NC(=O)[C@H](C)NC(=O)[C@H](CCCCN)NC(=O)CNC(=O)[C@H](Cc2ccccc2)NC(=O)[C@H](CCCCN)NC(=O)[C@H](CCCCN)NC(=O)[C@H](CCCCN)NC(=O)[C@H](CO)NC(=O)[C@H](Cc2c[nH]cn2)NC(=O)[C@]2(C)CCCC=CCCC[C@](C)(NC(=O)CN)C(=O)NCC(=O)N[C@@H](Cc3c[nH]cn3)C(=O)N[C@@H](Cc3ccccc3)C(=O)N2)C(=O)N[C@@H](C(C)C)C(=O)NCC(=O)N[C@@H](CCC(=O)O)C(=O)N1)C(=O)N[C@@H](CC(N)=O)C(=O)N[C@@H](CO)C(N)=O [Mag(i+4)1,15(A9K, K4H), GXGHFXHSKKKFGKAXVGEXBNS] (H-G[S5]GHF[S5]HSKKKFGKA[S5]VGE[S5][Nle]NS-NH2; staple 2-6, 16-20; N-terminus and C-terminus assumed)",MIC B cereus,B cereus,25 µg/mL
same,MIC E coli,E coli,3.1 µg/mL
same,MIC P aeruginosa,P aeruginosa,6.2 µg/mL
same,MIC S aureus,S aureus,>50 µg/mL
